Reference: article PMC4191062, “Development of αGlcN(1↔1)αMan-Based Lipid A Mimetics as a Novel Class of Potent Toll-like Receptor 4 Agonists” (Journal of Medicinal Chemistry, 2014)

Assays:
[1] = Storage stability in aqueous solution (MALDI-TOF analysis); format: physicochemical; conditions: 4 °C, several months, free acids at the phosphates
Experimental: Next, the free 6-OH group in the hexaacylated disaccharides 57 and 58 was phosphorylated by reaction with dibenzyl-(N,N′-diisopropylamino)phosphoramidite in the presence of a mild acid catalyst, 1H-tetrazole, and subsequent oxidation with mCPBA at −78 °C to furnish the bisphosphorylated hexaacylated products 61 and 62 in 91% and 89% yield, respectively. Final debenzylation by hydrogenation of 57, 61, and 62 on Pd-black followed by purification with gel permeation chromatography on Sephadex SX1 in toluene–methanol (2:1) afforded target bisphosphorylated Lipid A mimetics 1 and 2 and a monophosphorylated counterpart 3.

THP-1 cells = experiment: IRF-3 and IκBα phosphorylation by western blotting in THP-1 cells; format: cell-based, human
Experimental: Supplementary SI-Figure 3
Dose-dependent responses (THP-1 cells: α,α-GM-LAM 1-3 and Re-LPS) at the concentration range 0.4 – 100 ng/ml which are presented in the Figure 5, were extended to the higher concentration range (up to 300 ng/ml).
SI-Figure 3. Dose-dependent expression of cytokines induced by α,α-GM-LAM 1-3 in macrophage cell line THP-1 compared to E. coli Re-LPS at the concentration range 0.4 – 300 ng/ml. (A) Production of TNF-α; (B) Induction of […]
Supplementary SI-Figure 4
Lipid A mimetic 1 was examined for the activation of NF-κB (Nuclear factor kappaB) and IRF3
(Interferon regulatory factor 3). IRF3 activation […]
noticeable after 1h stimulation, though was
LPS. At 1h stimulation the α,α-GM-LAM 1 was […]
whereas at 3h simulation compound 1 (at a […]
stronger phosphorylation of IκBa (P-IκBa levels) as well as the higher levels of IκBa (reflecting the NF-κB dependent re-synthesis of IκB following its
Thus, IRF3 activation and NF-κB activation […]
degradation and its NF-κB dependent resynthesis) […]
compared to LPS after 3h stimulation.
SI-Figure 4. NF-κB and IRF-3 activation by LPS and α,α-GM-LAM 1 in macrophage-like cell line THP-1. THP-1 cells were treated for 1 h (upper panel) or for 3 h (lower panel) with 1 or with E. coli O111:B4 LPS at the concentrations 10, 100 and 1000 ng/ml. Non treated cells (NT) or cells treated with DMSO were used as controls.
Cell extracts were separated by SDS polyacrylamide gel electrophoresis. Phosphorylated or total IRF-3 and IκBα was detected by western blotting as indicated. Actin detection was used as a control for equal loading in each line. […]
Supplementary SI-Figure 6
The relative contribution of hydrophobic (acyl chains of Lipid A) and electrostatic (phosphate groups of Lipid A) interactions at the dimerization interface of two TLR4·MD-2·LPS complexes as well as the impact of the molecular shape of MD-2–bound Lipid A on the initiation of TLR4-mediated immune response remains largely unknown. […]

Row | SMILES | stability on storage in aqueous solution [1] | activation of NF-κB compared with LPS (THP-1 cells; THP-1, 1 h stimulation) | IRF3 activation (IRF-3 phosphorylation) (THP-1 cells; THP-1, 3 h stimulation) | activation of NF-κB compared with LPS (P-IκBα and IκBα levels) (THP-1 cells; THP-1, 3 h stimulation, concentration higher than 50 nM)
1 | CCCCCCCCCCCCCC(=O)O[C@H](CCCCCCCCCCC)CC(=O)O[C@@H]1[C@@H](NC(=O)C[C@@H](CCCCCCCCCCC)OC(=O)CCCCCCCCCCC)[C@@H](O[C@H]2O[C@H](COP(=O)(O)O)[C@@H](OC(=O)C[C@@H](CCCCCCCCCCC)OC(=O)CCCCCCCCC)[C@H](O)[C@@H]2OC)O[C@H](CO)[C@H]1OP(=O)(O)O [Compound 2, 4-O-[(R)-3-(Decanoyloxy)tetradecanoyl]-2-O-methyl-6-O-phosphoryl-α-mannopyranosyl-(1↔1)-2-deoxy-2-[(R)-3-(dodecanoyloxy)tetradecanoylamino]-4-O-phosphoryl-3-O-[(R)-3-(tetradecanoyloxy)tetradecanoyl]-α-D-glucopyranoside] | without any noticeable sign of degradation | – | – | –
2 | CCCCCCCCCCCCCC(=O)O[C@H](CCCCCCCCCCC)CC(=O)O[C@@H]1[C@@H](NC(=O)C[C@@H](CCCCCCCCCCC)OC(=O)CCCCCCCCCCC)[C@@H](O[C@H]2O[C@H](COP(=O)(O)O)[C@@H](OC(=O)C[C@@H](CCCCCCCCCCC)OC(=O)CCCCCCCCCCC)[C@H](O)[C@@H]2OC)O[C@H](CO)[C@H]1OP(=O)(O)O [Compound 1, 4-O-[(R)-3-(Dodecanoyloxy)tetradecanoyl]-2-O-methyl-6-O-phosphoryl-α-D-mannopyranosyl-(1↔1)-2-deoxy-2-[(R)-3-(dodecanoyloxy)tetradecanoylamino]-4-O-phosphoryl-3-O-[(R)-3-(tetradecanoyloxy)tetradecanoyl]-α-D-glucopyranoside] | without any noticeable sign of degradation | comparable | detectable after 3h stimulation | more potent
